Results as given in patent publication US20140263071A1, “METHOD FOR COLLECTING METALS” (CHEMEC OY AB, priority 2011, published 2014).
Like-named read-outs stand apart in the source and are kept apart here.

Key:
[1] = Solubility of the compounds, molybdenum blue method, UV/Vis 880 nm (Example 6); type: physicochemical; details: saturated aqueous solution
Description: The low solubility is achieved by using long carbon chain(s) or aromatic ring(s) in the bisphosphonate structure I. Advantageously, compound I contains 7-16 carbon atoms either in chain, branched chain or cyclic structure or in combination of these structural units between A and X, and preferably in the chain starting from the P-C-P bridging carbon and the number of heteroatomic functional groups excluding the phosphorous functionalities are limited to two or three groups. The solubility decreases even more if compound I contains functional groups which are capable to form twitter ions with each other. Typical examples of twitter ions are acids (e.g., —CO2H or —PO3H2) and bases (amines) in the same molecule. Solubilities of selected bisphosphonate compounds I were determined with UV/Vis spectrophotometer at 880 nm using molybdenum blue method (Finnish Standard Association SFS 3026: Determination of phosphate in water. Finnish Standard Association SFS, Helsinki Finland, 1986).
Solubilities of selected compounds were determined with UV/Vis Spectrophotometer at 880 nm using molybdenum blue method from saturated aqueous samples solutions (Finnish Standard Association SFS 3026: Determination of phosphate in water. Finnish Standard Association SFS, Helsinki Finland, 1986).

[2] = Maximum expulsion percent of single metal cations from water solution (Example 8)
Procedure: A water solution (110 ml) containing known amount of single cationic element or elements, typically 0.5-200 ppm, was prepared from Merch Titrisol® standard solution. After adjusting pH by using acid (e.g. HCl or HNO3) or base (e.g. NaOH) to desired initial value, sample A (10 ml) was taken followed by adding 100 mg of selected solid complexation agent. The mixture was stirred at room temperature for 24 h and sample B (10 ml) was taken. Samples A and B were filtrated separately trough 0.2 μm syringe filter and the concentration of the studied element or elements in both solution was determined by using atomic absorption spectrophotometer. The expulsion percent was determined from the concentration differences between the sample solutions A and B.
The maximum expulsion percent and pH value in which the value was achieved was determined for each single cationic element using the general procedure mentioned above.

[3] = Removal of Cr^3+ from acidic solution, TS 4 diluted 1:100 (Example 19); details: TS 4 diluted 1:100, pH 3.67, 1.0 g agent in 50 ml, 24 h
Procedure: A test solution containing 24000 mg/l of Na^+; 50-2000 mg/l of Ca^2+, Cr^3+, K^+ and Mg^2+; and trace amount of Al^3+, Fe^2/3+, Mn^2+, Ni^2+, Sr^2+, V^4+, and Zn^2+ cations were prepared.
TS 4 was diluted to 1:100 with water, pH (3.67) of the solution was determined and sample A was taken. A part (50 ml) of the diluted solution was treated with 1a, 6d or 7a (1.0 g) for 24 h with stirring at room temperature. After filtration trough 0.2 μm syringe filter, the expulsion per for Cr(III) was determined compared to original solution A. The results of expulsion per cents of Cr^3+ and some other elements are given in Table 13.

## NCCCCCCCCCCC(O)(P(=O)(O)O)P(=O)(O)O [Compound 1a, 11-Amino-1-hydroxyundecane-1,1-diyldiphosphonic acid]
[1]
  solubility: 59 mg/L
[1]; read-out: mg/l P (solubility calculated as elemental phosphorus)
  solubility: 10 mg/L
[2]; Ag^+, pH 2.0, initial 1 ppm
  Expulsion-% (maximum): 100%
[2]; Al^3+, pH 2.1, initial 10 ppm
  Expulsion-% (maximum): 96.9%
[2]; Au^3+, pH 0.5, initial 1 ppm
  Expulsion-% (maximum): 63.3%
[2]; Ba^2+, pH 3.0, initial 10 ppm
  Expulsion-% (maximum): 90.2%
[2]; Bi^3+, pH 3.0, initial 10 ppm
  Expulsion-% (maximum): 100%
[2]; Ca^2+, pH 2.6, initial 2 ppm
  Expulsion-% (maximum): 69.9%
[2]; Cd^2+, pH 3.6, initial 0.5 ppm
  Expulsion-% (maximum): 97.3%
[2]; Co^2+, pH 3.4, initial 1 ppm
  Expulsion-% (maximum): 85.0%
[2]; Cr^3+, pH 3.1, initial 2 ppm
  Expulsion-% (maximum): 97.2%
[2]; Cr^6+, pH 6.6, initial 2 ppm
  Expulsion-% (maximum): 0%
[2]; Cu^2+, pH 3.5, initial 2 ppm
  Expulsion-% (maximum): 95.7%
[2]; Cu^+, pH 2.4, initial 2 ppm
  Expulsion-% (maximum): 85.3%
[2]; Eu^3+, pH 4.0, initial 5 ppm
  Expulsion-% (maximum): 85.3%
[2]; Fe^2+, pH 6.5, initial 1 ppm
  Expulsion-% (maximum): 93.0%
[2]; Fe^3+, pH 3.1, initial 1 ppm
  Expulsion-% (maximum): 98.9%
[2]; Ga^3+, pH 0.5, initial 50 ppm
  Expulsion-% (maximum): 1.0%
[2]; Gd^3+, pH 1.5, initial 100 ppm
  Expulsion-% (maximum): 0%
[2]; Hg^2+, pH 5.0, initial 0.1 ppm
  Expulsion-% (maximum): 93.0%
[2]; Hg^+, pH 3.0, initial 1 ppm
  Expulsion-% (maximum): 89.4%
[2]; In^3+, pH 2.1, initial 20 ppm
  Expulsion-% (maximum): 73.4%
[2]; Ir^3+, pH 0.6, initial 100 ppm
  Expulsion-% (maximum): 66.1%
[2]; K^+, pH 4.2, initial 1 ppm
  Expulsion-% (maximum): 0%
[2]; La^3+, pH 3.0, initial 100 ppm
  Expulsion-% (maximum): 54.1%
[2]; Li^+, pH 3.9, initial 0.5 ppm
  Expulsion-% (maximum): 4.8%
[2]; Mg^2+, pH 2.9, initial 0.5 ppm
  Expulsion-% (maximum): 64.3%
[2]; Mn^2+, pH 3.4, initial 1 ppm
  Expulsion-% (maximum): 93.8%
[2]; Mo^6+, pH 8.9, initial 10 ppm
  Expulsion-% (maximum): 80.8%
[2]; Na^+, pH 3.9, initial 0.5 ppm
  Expulsion-% (maximum): 0%
[2]; Nb^5+, pH 8.5, initial 100 ppm
  Expulsion-% (maximum): 100%
[2]; Nd^3+, pH 4.1, initial 100 ppm
  Expulsion-% (maximum): 98.1%
[2]; Ni^2+, pH 3.3, initial 1 ppm
  Expulsion-% (maximum): 78.6%
[2]; Os^4+, pH 0.5, initial 100 ppm
  Expulsion-% (maximum): 85.8%
[2]; Pb^2+, pH 3.2, initial 5 ppm
  Expulsion-% (maximum): 99.6%
[2]; Pd^2+, pH 8.0, initial 5 ppm
  Expulsion-% (maximum): 77.8%
[2]; Pt^2+, pH 0.5, initial 25 ppm
  Expulsion-% (maximum): 70.0%
[2]; Rh^3+, pH 4.0, initial 10 ppm
  Expulsion-% (maximum): 77.7%
[2]; Ru^3+, pH 2.0, initial 10 ppm
  Expulsion-% (maximum): 48.5%
[2]; Sb^3+, pH 3.0, initial 10 ppm
  Expulsion-% (maximum): 100%
[2]; Sc^3+, pH 2.0, initial 5 ppm
  Expulsion-% (maximum): 100%
[2]; Si^4+, pH 1.0, initial 50 ppm
  Expulsion-% (maximum): 1.3%
[2]; Sn^2+, pH 7.0, initial 50 ppm
  Expulsion-% (maximum): 98.1%
[2]; Sn^4+, pH 10.3, initial 200 ppm
  Expulsion-% (maximum): 100%
[2]; Sr^2+, pH 5.0, initial 2 ppm
  Expulsion-% (maximum): 93.2%
[2]; Ti^4+, pH 9.8, initial 50 ppm
  Expulsion-% (maximum): 48.8%
[2]; U^6+, pH 3.4, initial 2.5 ppm
  Expulsion-% (maximum): 87.6%
[2]; V^4+, pH 0.5, initial 100 ppm
  Expulsion-% (maximum): 69.3%
[2]; W^6+, pH 1.6, initial 50 ppm
  Expulsion-% (maximum): 12.0%
[2]; Y^3+, pH 2.1, initial 25 ppm
  Expulsion-% (maximum): 89.1%
[2]; Zn^2+, pH 3.7, initial 0.5 ppm
  Expulsion-% (maximum): 94.7%
[2]; Zr^4+, pH 0.5, initial 100 ppm
  Expulsion-% (maximum): 81.5%
[3]; Ca^2+
  Expulsion [%] Ca^2+: 67%
[3]; Cr^3+
  Expulsion [%] Cr^3+: 91%
[3]; K^+
  Expulsion [%] K^+: 36%
[3]; Mg^2+
  Expulsion [%] Mg^2+: 74%
[3]; Na^+
  Expulsion [%] Na^+: 14%
[3]; Zn^2+
  Expulsion [%] Zn^2+: >39^1) %
